From patent publication US9855265B2, “Methods for treating cancer with TrkA receptor tyrosine kinase antagonists” (VM Oncology LLC, priority 2014, dated 2018)
Read-outs that look alike come from different tables or passages of the source.

What was measured:
[1] = Pharmacokinetics and bioavailability in CD-1 mice; settings: in vivo
Procedure: Pharmacokinetic and bioavailabilities after oral and intraperitoneal (i.p.) treatment bioavailability in CD-1 mice. Pharmacokinetics and bioavailability of after oral and i.p. treatment in CD-1 mice (n=4 per dose group) are determined.

[2] = tested on: HepG2 human liver cancer cells; assay: Cell Viability and Proliferation Assay, HepG2; assay type: cell-based; settings: after 24 incubation
Procedure: (§1) Cell Viability and Proliferation Assays. To assess the chemosensitivity of tumor cells, cell viability is measured by CellTiter-Glo® Luminescent Cell Viability Assay (Promega; Wis., USA) per the manufacturer's instruction. Briefly, 5×10^3 to 7×10^5 cells/ml are cultured in sterile 96-well plates in the presence of increasing concentrations of the drugs (test article, 0 to 100 μM), or vehicle in RPMI medium. The plates are then incubated for 24 to 96 h, and then 100 μl of CellTiter-Glo reagent is added to lyse the cells. After a 10-min incubation at room temperature, the luminescence is recorded in a luminometer with an integration time of 1 s per well. The luminescence signals for the drug-treated cells are normalized by the luminescence signal obtained from vehicle-treated cells. As an alternative method to quantitate cell viability, the trypan blue exclusion dye method was used. Vehicle- or drug-treated cells were assayed by adding trypan blue solution (0.4% in phosphate-buffered saline [PBS]) to the culture medium. After 3 min, the number of dead cells that retained the dye is compared to the total number of cells to calculate cell viability. GraphPad Prism 5 software is used to calculate IC50 and plot effect-dose curve of drugs. Multiplate reader: EnVision 2104 (PerkinElmer). % of control variability=100*[(X(drug_treated)−L(baseline))/(H(vehicle_control)−L(baseline))]. […]

[3] = target: CDK2/cyclinA (Homo sapiens, UniProt P24941); assay: radiometric kinase assay, other kinases: CDK2/cyclinA; assay type: biochemical; settings: duplicate
Procedure: (§2) Compound inhibition in a radiometric based mixed micelle assay: In a final reaction volume of 25 μL, TrkA (h) ([…]) is incubated with the kinase reaction buffer (20 mM HEPES (pH 7.5), 10 mM MgCl2, 1 mM EGTA, 0.02% Brij 35, 0.02 mg/ml BSA, 0.1 mM Na3VO4, 2 mM DTT, 1% DMSO), 0.2 mg/ml substrate PolyEY(4:1) and […], and [^33P-ATP](specific activity approx. 500 cpm/pmol, concentration as required). The reaction is initiated by the addition of the MgATP mix. After incubation for at least 40 minutes at room temperature, the reaction is stopped by the addition of 5 μL of a 3% phosphoric acid solution. 10 μL of the reaction is then spotted onto a P30 filtermat and washed three times for 5 minutes in 75 mM phosphoric acid and once in methanol prior to drying and scintillation counting. TrkA: Recombinant Human Cytoplasmic Domain (amino acids 441-796), Histidine-tagged, expressed in insect cells. Activated in vitro via auto-phosphorylation. Mw=42.8 kDa. Substrates for kinases: poly(EY) for TRKA; poly(EY)(4:1) with 2 mM MnCl2, average Mw=16 kDa Standard conditions (unless otherwise specified): 30 nM TRKA, 0.2 mg/ml poly(EY)+2 mM MnCl2, and 10 μM ([γ-^33P]) ATP. Using the similar assay condition with other kinases of recombinant human cytoplasmic domain, the activities of other kinases could be also measured.

[4] = target: JAK3 (Homo sapiens, UniProt P52333); assay: radiometric kinase assay, other kinases: JAK3; assay type: biochemical; settings: duplicate
Procedure: as §2

[5] = target: TrkB (Homo sapiens, UniProt Q16620); assay: live whole cell based functional assay, BDNF stimulated TrkB activation; design: expressed in transfected cells; settings: triplicate
[6] = target: LYN (Homo sapiens, UniProt P07948); assay: radiometric kinase assay, other kinases: LYN; assay type: biochemical; settings: duplicate
Procedure: as §2

[7] = tested on: MIA PaCa-2 human pancreatic cancer cells; assay: Cell Viability and Proliferation Assay, MIA PaCa-2; assay type: cell-based; settings: after 24 incubation
Procedure: as §1

Chain of LYN (P07948 whole entry): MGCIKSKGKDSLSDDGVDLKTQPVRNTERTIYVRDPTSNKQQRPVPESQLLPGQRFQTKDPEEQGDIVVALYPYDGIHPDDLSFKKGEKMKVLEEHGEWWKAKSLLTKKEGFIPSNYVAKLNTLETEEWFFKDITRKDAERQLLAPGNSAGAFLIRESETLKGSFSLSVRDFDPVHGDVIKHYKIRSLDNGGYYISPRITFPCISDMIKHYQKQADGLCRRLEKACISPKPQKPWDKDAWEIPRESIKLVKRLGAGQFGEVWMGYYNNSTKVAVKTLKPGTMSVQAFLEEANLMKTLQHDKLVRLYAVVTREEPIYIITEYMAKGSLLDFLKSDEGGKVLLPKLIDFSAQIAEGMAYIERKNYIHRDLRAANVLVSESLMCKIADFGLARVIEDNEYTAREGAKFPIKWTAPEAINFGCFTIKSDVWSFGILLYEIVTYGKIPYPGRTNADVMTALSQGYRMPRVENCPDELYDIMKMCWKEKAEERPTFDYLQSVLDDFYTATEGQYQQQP
Chain of TrkB (Q16620 32-822): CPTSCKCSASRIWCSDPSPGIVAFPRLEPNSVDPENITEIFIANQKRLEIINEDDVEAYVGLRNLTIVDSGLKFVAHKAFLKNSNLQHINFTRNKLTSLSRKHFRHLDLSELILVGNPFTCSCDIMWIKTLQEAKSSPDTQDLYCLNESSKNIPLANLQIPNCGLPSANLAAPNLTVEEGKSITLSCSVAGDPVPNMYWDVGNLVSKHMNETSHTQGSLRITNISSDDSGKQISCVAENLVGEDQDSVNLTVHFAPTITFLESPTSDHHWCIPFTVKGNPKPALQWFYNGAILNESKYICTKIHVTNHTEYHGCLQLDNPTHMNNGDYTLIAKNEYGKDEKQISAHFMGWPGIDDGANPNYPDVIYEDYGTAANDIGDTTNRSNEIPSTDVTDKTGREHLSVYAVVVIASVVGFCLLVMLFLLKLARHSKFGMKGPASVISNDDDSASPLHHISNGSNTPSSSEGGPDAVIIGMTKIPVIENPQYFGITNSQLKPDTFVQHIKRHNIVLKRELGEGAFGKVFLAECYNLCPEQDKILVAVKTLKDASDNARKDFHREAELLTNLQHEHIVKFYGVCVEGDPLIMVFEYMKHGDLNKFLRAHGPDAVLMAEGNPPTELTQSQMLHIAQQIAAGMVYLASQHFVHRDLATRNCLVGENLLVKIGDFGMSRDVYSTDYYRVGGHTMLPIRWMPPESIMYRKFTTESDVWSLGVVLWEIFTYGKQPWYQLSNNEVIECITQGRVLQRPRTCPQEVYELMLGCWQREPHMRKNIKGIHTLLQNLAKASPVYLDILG
Chain of JAK3 (P52333 whole entry): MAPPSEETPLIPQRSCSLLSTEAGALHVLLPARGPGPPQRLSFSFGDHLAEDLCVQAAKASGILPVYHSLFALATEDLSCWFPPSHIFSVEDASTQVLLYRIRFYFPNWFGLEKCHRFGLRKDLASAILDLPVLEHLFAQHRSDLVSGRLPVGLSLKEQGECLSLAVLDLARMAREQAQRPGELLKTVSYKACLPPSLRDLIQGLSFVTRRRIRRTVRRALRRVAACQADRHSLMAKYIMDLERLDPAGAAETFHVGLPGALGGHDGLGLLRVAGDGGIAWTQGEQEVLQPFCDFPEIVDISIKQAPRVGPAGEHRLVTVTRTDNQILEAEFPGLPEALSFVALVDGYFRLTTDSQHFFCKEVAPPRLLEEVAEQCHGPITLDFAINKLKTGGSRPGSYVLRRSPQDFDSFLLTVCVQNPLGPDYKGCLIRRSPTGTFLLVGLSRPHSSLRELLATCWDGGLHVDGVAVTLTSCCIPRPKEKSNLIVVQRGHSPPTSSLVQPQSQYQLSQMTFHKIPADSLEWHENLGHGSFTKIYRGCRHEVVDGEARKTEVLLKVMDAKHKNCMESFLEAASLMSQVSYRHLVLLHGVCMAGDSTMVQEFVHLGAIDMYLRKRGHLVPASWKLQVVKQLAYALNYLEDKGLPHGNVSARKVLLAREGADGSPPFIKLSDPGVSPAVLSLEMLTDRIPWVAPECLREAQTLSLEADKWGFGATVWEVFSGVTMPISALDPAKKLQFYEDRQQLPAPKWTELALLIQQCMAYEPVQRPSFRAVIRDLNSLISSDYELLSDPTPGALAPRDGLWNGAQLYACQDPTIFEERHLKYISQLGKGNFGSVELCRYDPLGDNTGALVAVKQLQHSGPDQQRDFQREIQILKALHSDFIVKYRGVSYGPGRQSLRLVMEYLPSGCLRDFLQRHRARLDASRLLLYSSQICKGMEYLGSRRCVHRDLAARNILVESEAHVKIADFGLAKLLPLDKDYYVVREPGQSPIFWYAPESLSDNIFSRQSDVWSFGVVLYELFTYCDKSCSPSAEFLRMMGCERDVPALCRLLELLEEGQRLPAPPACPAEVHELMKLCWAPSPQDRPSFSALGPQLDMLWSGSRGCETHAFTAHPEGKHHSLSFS

- half-life ([1]; CD-1, mouse, ip, 50 mg/kg): ~3.5 h
- half-life ([1]; CD-1, mouse, iv): ~1 h
- bioavailability ([1]; CD-1, mouse, po, 50 mg/kg): ~100%
- half-life ([1]; CD-1, mouse, po, 50 mg/kg): ~4.5 h
- bioavailability ([1]; mouse, ip, CD-1 mice, 50 mg/kg i.p. dosing, read-out: i.p. bioavailability): ~100%
- IC50 [2]: ~5 µM
- IC50 [3]: > 10 µM
- IC50 [4]: > 10 µM
- IC50 [5]: > 10 µM
- IC50 [6]: > 10 µM
- IC50 [7]: 2 to 5 µM
Structure (SMILES): Nc1c(N2CCN(C3CCCCC3)CC2)cc(Nc2ccc(C(=O)O)cc2)c2c1C(=O)c1ccccc1C2=O [Compound 12, 4-{[4-amino-3-(4-cyclohexylpiperazin-1-yl)-9,10-dioxo-9,10-dihydroanthracen-1-yl]amino}benzoic acid]
